# In patent publication US9763445B2, “Safened herbicidal compositions comprising a pyridine carboxylic acid herbicide” (Dow AgroSciences, LLC, priority 2014, dated 2017):
# Columns and labels:
# [1] = system: bird's-eye speedwell (VERPE); assay: Postemergence greenhouse trial, % visual injury on bird's-eye speedwell; assay type: in vivo, Veronica persica
# Protocol: Seeds of the desired test plant species were planted in Sun Gro MetroMix® 306 planting mixture, which typically has a pH of 6.0 to 6.8 and an organic matter content of about 30 percent, in plastic pots with a surface area of 103.2 square centimeters (cm^2). When required to ensure good germination and healthy plants, a fungicide treatment and/or other chemical or physical treatment was applied. The plants were grown for 7-36 days (d) in a greenhouse with an approximate 14-hour (h) photoperiod which was maintained at about 23° C. during the day and 22° C. during the night. Nutrients and water were added on a regular basis and supplemental lighting was provided with overhead metal halide 1000-Watt lamps as necessary. The plants were employed for testing when they reached the second or third true leaf stage.
# Weighed amounts of technical material were dissolved in a volume of 97:3 volume per volume (v/v) acetone/dimethyl sulfoxide (DMSO) to stock solutions. […] The concentrated stock solutions were diluted with an aqueous mixture of 1.5% v/v of Agri-dex crop oil concentrate to provide the appropriate application rates. Compound requirements are based upon a 12 milliliter (mL) application volume at a rate of 187 liters per hectare (L/ha). Stocks solutions of the safeners were prepared following the same procedure. Spray solutions of the safeners and experimental compound mixtures were prepared by adding the stock solutions to the appropriate amount of dilution solution to form a 12 mL spray solution in two-way combinations. Formulated compounds were applied to the plant material with an overhead Mandel track sprayer equipped with 8002E nozzles calibrated to deliver 187 L/ha over an application area of 0.503 square meters (m^2) at a spray height of 18 inches (43 centimeters (cm)) above average plant canopy. Control plants were sprayed in the same manner with the solvent blank. All herbicide application (component a) rates are in g ae/ha and all safener (component b) rates are in g ai/ha.
# The treated plants and control plants were placed in a greenhouse as described above and watered by sub-irrigation to prevent wash-off of the test compounds. After 20-22 d, the condition of the test plants as compared with that of the control plants was determined visually and scored on a scale of 0 to 100 percent where 0 corresponds to no injury and 100 corresponds to complete kill. […] Colby's equation was used to determine the herbicidal effects expected from the mixtures. […]
# common poppy (PAPRH) = assay: Postemergence greenhouse trial, % visual injury on common poppy; assay type: in vivo, Papaver rhoeas; settings: for % visual injury, observed (Ob) / % visual injury, Ob: PAPRH; for % visual injury, Ob: CQC-m 0 g/ha
# Procedure, shortened: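 Herbicide rates g ae/ha, safener (cloquintocet-mexyl) rates g ai/ha; spray carrier 1.5% v/v crop oil concentrate, 187 L/ha, 2nd–3rd leaf stage. Rating: visual % injury at 20-22 d.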
# winter rape (BRSNW) = assay: Postemergence greenhouse trial, % visual injury on winter rape; assay type: in vivo, Brassica napus; settings: for % visual injury, observed (Ob) / % visual injury, Ob: BRSNW; for % visual injury, Ob: CQC-m 0 g/ha
# Procedure, shortened: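 Visual injury, 0 (none) to 100 (complete kill), rated 20-22 d after overhead track-sprayer application at 187 L/ha; Colby's equation gave expected mixture responses. Herbicide (g ae/ha) and cloquintocet-mexyl safener (g ai/ha) diluted in aqueous 1.5% v/v Agri-dex, applied to weeds at 2–3 true leaves.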
# pigweed (AMARE) = assay: Postemergence greenhouse trial, % visual injury on pigweed; assay type: in vivo, Amaranthus retroflexus; settings: for % visual injury, observed (Ob): AMARE
# Procedure, shortened: (§1)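 Injury was scored visually (0 = none, 100 = complete kill) 20–22 d after track-sprayer application at 187 L/ha, compared with solvent-sprayed controls. Test plants at the 2–3 true leaf stage; herbicide (g ae/ha) plus cloquintocet-mexyl safener (g ai/ha) in crop-oil-containing spray; expected mixture response by Colby.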
# spring wheat (TRZAS) = assay: Postemergence greenhouse trial, % visual injury on spring wheat; assay type: in vivo, Triticum aestivum
# Procedure, shortened: as §1
# [2] = compound 2 4.380 + CQC-m 0 g/ha
# [3] = Brassica napus, post-emergence, alone, read-out: % visual injury, Ob
# [4] = Amaranthus retroflexus, post-emergence, alone, 35 g/ha, read-out: % visual injury, Ob
smiles,measurement,setting,value
Nc1c(F)c(-c2ccc3cc[nH]c3c2F)nc(C(=O)OCc2ccccc2)c1Cl [compound 2],"% visual injury, observed (Ob)","[1]; VERPE, compound 2 4.380 + CQC-m 0 g/ha",75%
same,"% visual injury, observed (Ob)","[1]; VERPE, compound 2 8.75 + CQC-m 0 g/ha",95%
same,"% visual injury, observed (Ob)","[1]; VERPE, compound 2 17.5 + CQC-m 0 g/ha",100%
same,"% visual injury, observed (Ob)","[1]; VERPE, compound 2 35 + CQC-m 0 g/ha",100%
same,"% visual injury, observed (Ob)","[1]; VERPE, compound 2 70 + CQC-m 0 g/ha",100%
same,"% visual injury, observed (Ob)",common poppy (PAPRH); [2],93%
same,"% visual injury, observed (Ob)",common poppy (PAPRH); compound 2 8.75 + CQC-m 0 g/ha,100%
same,"% visual injury, observed (Ob)",common poppy (PAPRH); compound 2 17.5 + CQC-m 0 g/ha,100%
same,"% visual injury, observed (Ob)",common poppy (PAPRH); compound 2 35 + CQC-m 0 g/ha,100%
same,"% visual injury, observed (Ob)",common poppy (PAPRH); compound 2 70 + CQC-m 0 g/ha,100%
same,"% visual injury, observed (Ob)",winter rape (BRSNW); [2],84%
same,"% visual injury, observed (Ob)",winter rape (BRSNW); compound 2 8.75 + CQC-m 0 g/ha,88%
same,"% visual injury, observed (Ob)",winter rape (BRSNW); compound 2 17.5 + CQC-m 0 g/ha,55%
same,"% visual injury, observed (Ob)",winter rape (BRSNW); compound 2 35 + CQC-m 0 g/ha,100%
same,"% visual injury, observed (Ob)",winter rape (BRSNW); compound 2 70 + CQC-m 0 g/ha,100%
same,plant injury at 35 g/ha,winter rape (BRSNW); [3],100%
same,"% visual injury, observed (Ob)",pigweed (AMARE); [2],80%
same,"% visual injury, observed (Ob)",pigweed (AMARE); compound 2 8.75 + CQC-m 0 g/ha,95%
same,"% visual injury, observed (Ob)",pigweed (AMARE); compound 2 17.5 + CQC-m 0 g/ha,100%
same,pest or weed control at 35 g/ha,pigweed (AMARE); [4],100%
same,"% visual injury, Ob","spring wheat (TRZAS); alone, 35 g/ha",15%
Nc1c(F)c(-c2ccc3cc[nH]c3c2F)nc(C(=O)O)c1Cl [compound 1],"% visual injury, Ob","[1]; alone, 4.375 g/ha",93%
same,"% visual injury, Ob","[1]; alone, 8.75 g/ha",95%
same,"% visual injury, Ob","[1]; alone, 17.5 g/ha",98%
same,"% visual injury, Ob","[1]; alone, 35 g/ha",99%
same,"% visual injury, Ob","[1]; alone, 70 g/ha",99%
same,pest or weed control at 4.375 g/ha,"common poppy (PAPRH); Papaver rhoeas, post-emergence, alone, 4.375 g/ha, read-out: % visual injury, Ob",97%
same,pest or weed control at 8.75 g/ha,"common poppy (PAPRH); Papaver rhoeas, post-emergence, alone, 8.75 g/ha, read-out: % visual injury, Ob",99%
same,pest or weed control at 17.5 g/ha,"common poppy (PAPRH); Papaver rhoeas, post-emergence, alone, 17.5 g/ha, read-out: % visual injury, Ob",100%
same,pest or weed control at 35 g/ha,"common poppy (PAPRH); Papaver rhoeas, post-emergence, alone, 35 g/ha, read-out: % visual injury, Ob",100%
same,pest or weed control at 70 g/ha,"common poppy (PAPRH); Papaver rhoeas, post-emergence, alone, 70 g/ha, read-out: % visual injury, Ob",100%
same,plant injury at 4.375 g/ha,"winter rape (BRSNW); Brassica napus, post-emergence, alone, 4.375 g/ha, read-out: % visual injury, Ob",79%
same,plant injury at 8.75 g/ha,"winter rape (BRSNW); Brassica napus, post-emergence, alone, 8.75 g/ha, read-out: % visual injury, Ob",84%
same,plant injury at 17.5 g/ha,"winter rape (BRSNW); Brassica napus, post-emergence, alone, 17.5 g/ha, read-out: % visual injury, Ob",96%
same,plant injury at 35 g/ha,winter rape (BRSNW); [3],99%
same,plant injury at 70 g/ha,"winter rape (BRSNW); Brassica napus, post-emergence, alone, 70 g/ha, read-out: % visual injury, Ob",100%
same,"% visual injury, observed (Ob)",pigweed (AMARE); compound 1 alone 20 g/ha,100%
same,"% visual injury, observed (Ob)",pigweed (AMARE); compound 1 alone 40 g/ha,100%
same,pest or weed control at 4.375 g/ha,"pigweed (AMARE); Amaranthus retroflexus, post-emergence, alone, 4.375 g/ha, read-out: % visual injury, Ob",81%
same,pest or weed control at 8.75 g/ha,"pigweed (AMARE); Amaranthus retroflexus, post-emergence, alone, 8.75 g/ha, read-out: % visual injury, Ob",91%
same,pest or weed control at 17.5 g/ha,"pigweed (AMARE); Amaranthus retroflexus, post-emergence, alone, 17.5 g/ha, read-out: % visual injury, Ob",99%
same,pest or weed control at 35 g/ha,pigweed (AMARE); [4],100%
same,pest or weed control at 70 g/ha,"pigweed (AMARE); Amaranthus retroflexus, post-emergence, alone, 70 g/ha, read-out: % visual injury, Ob",100%
same,"% visual injury, Δ","pigweed (AMARE); alone, 35 g/ha",0%
same,"% visual injury, Ob","spring wheat (TRZAS); alone, 4.375 g/ha",13%
same,"% visual injury, Ob","spring wheat (TRZAS); alone, 8.75 g/ha",16%
same,"% visual injury, Ob","spring wheat (TRZAS); alone, 17.5 g/ha",31%
same,"% visual injury, Ob","spring wheat (TRZAS); alone, 35 g/ha",39%
same,"% visual injury, Ob","spring wheat (TRZAS); alone, 70 g/ha",51%
COc1c(C(=O)O)nc(-c2ccc3cc[nH]c3c2F)c(F)c1N [compound 13],"% visual injury, Ob","[1]; VERPE, compound 4.375 g/ha, CQC-m 0 g/ha",85%
same,"% visual injury, Ob","[1]; VERPE, compound 8.75 g/ha, CQC-m 0 g/ha",93%
same,"% visual injury, Ob","[1]; VERPE, compound 17.5 g/ha, CQC-m 0 g/ha",98%
same,"% visual injury, Ob","[1]; VERPE, compound 35 g/ha, CQC-m 0 g/ha",98%
same,"% visual injury, Ob","[1]; VERPE, compound 70 g/ha, CQC-m 0 g/ha",100%
same,"% visual injury, Ob",common poppy (PAPRH); compound 4.375 g/ha,90%
same,"% visual injury, Ob",common poppy (PAPRH); compound 8.75 g/ha,100%
same,"% visual injury, Ob",common poppy (PAPRH); compound 17.5 g/ha,100%
same,"% visual injury, Ob",common poppy (PAPRH); compound 35 g/ha,100%
same,"% visual injury, Ob",common poppy (PAPRH); compound 70 g/ha,100%
same,"% visual injury, Ob",winter rape (BRSNW); compound 4.375 g/ha,100%
same,"% visual injury, Ob",winter rape (BRSNW); compound 8.75 g/ha,100%
same,"% visual injury, Ob",winter rape (BRSNW); compound 17.5 g/ha,100%
same,"% visual injury, Ob",winter rape (BRSNW); compound 35 g/ha,100%
same,"% visual injury, Ob",winter rape (BRSNW); compound 70 g/ha,100%
same,"% visual injury, Ob","spring wheat (TRZAS); TRZAS, compound 4.375 g/ha, CQC-m 0 g/ha",40%
same,"% visual injury, Ob","spring wheat (TRZAS); TRZAS, compound 8.75 g/ha, CQC-m 0 g/ha",53%
same,"% visual injury, Ob","spring wheat (TRZAS); TRZAS, compound 17.5 g/ha, CQC-m 0 g/ha",67%
same,"% visual injury, Ob","spring wheat (TRZAS); TRZAS, compound 35 g/ha, CQC-m 0 g/ha",80%
same,"% visual injury, Ob","spring wheat (TRZAS); TRZAS, compound 70 g/ha, CQC-m 0 g/ha",87%
